Assay [1] deals with class I/IIb HDAC activity in T47D cells. The assay is described as follows: cells. Type of assay: cell-based, human. The following applies: 48 h, read-out: IC50 Cellular HDAC Assay. As for the experimental part: The cellular HDAC assay was performed based on an assay published by Heltweg and Jung and Ciossek et al.. Breast cancer cell line T-47D (12,000 c/w) was seeded in 96-well tissue culture plates (Corning, Kaiserslautern, Germany) in a total volume of 90 µL of culture medium. After 24 h, cells were incubated 48 h with increasing concentrations of a-lipoic acid. The reaction was started by adding 10 µL of 3 mM Boc-Lys(Ac)-AMC (Bachem, Bubensdorf, Switzerland) and again incubated for 3 h under cell culture conditions. […]

In the next assay the target is T1, HDAC4 (Homo sapiens, UniProt P56524).
T1 construct: purchased Reaction Biology Corp. KDA-21-279
The assay is described as follows: Enzyme HDAC inhibition assay, HDAC4. In kind it is biochemical. The conditions noted are these: IC50 ± SEM; three experiments in duplicates; read-out: IC50 HDAC 4.

Assay [2] relates to HDAC2. The conditions noted are these: obtained by fitting Lechner et al. source data to a sigmoidal concentration–effect model; ref [21]; read-out: IC50 HDAC 2, Lechner et al.; cited from earlier work.
The test system of assay [3] is HDAC6. The following applies: ref [21], cited from earlier work.
Assay [4] deals with HDAC8. The following applies: ref [21], cited from earlier work; for IC50: obtained by fitting Lechner et al. source data to a sigmoidal concentration–effect model, read-out: IC50 HDAC 8, Lechner et al.
Assay [5] addresses HDAC2 (Homo sapiens, UniProt Q92769). The assay can be described thus: Enzyme HDAC inhibition assay, HDAC2.
Source text: (§4) All human recombinant enzymes were purchased from Reaction Biology Corp. (Malvern, PA, USA).
Assay [6] addresses T2, HDAC6 (Homo sapiens, UniProt Q9UBN7).
T2 sequence (Q9UBN7 1-1215): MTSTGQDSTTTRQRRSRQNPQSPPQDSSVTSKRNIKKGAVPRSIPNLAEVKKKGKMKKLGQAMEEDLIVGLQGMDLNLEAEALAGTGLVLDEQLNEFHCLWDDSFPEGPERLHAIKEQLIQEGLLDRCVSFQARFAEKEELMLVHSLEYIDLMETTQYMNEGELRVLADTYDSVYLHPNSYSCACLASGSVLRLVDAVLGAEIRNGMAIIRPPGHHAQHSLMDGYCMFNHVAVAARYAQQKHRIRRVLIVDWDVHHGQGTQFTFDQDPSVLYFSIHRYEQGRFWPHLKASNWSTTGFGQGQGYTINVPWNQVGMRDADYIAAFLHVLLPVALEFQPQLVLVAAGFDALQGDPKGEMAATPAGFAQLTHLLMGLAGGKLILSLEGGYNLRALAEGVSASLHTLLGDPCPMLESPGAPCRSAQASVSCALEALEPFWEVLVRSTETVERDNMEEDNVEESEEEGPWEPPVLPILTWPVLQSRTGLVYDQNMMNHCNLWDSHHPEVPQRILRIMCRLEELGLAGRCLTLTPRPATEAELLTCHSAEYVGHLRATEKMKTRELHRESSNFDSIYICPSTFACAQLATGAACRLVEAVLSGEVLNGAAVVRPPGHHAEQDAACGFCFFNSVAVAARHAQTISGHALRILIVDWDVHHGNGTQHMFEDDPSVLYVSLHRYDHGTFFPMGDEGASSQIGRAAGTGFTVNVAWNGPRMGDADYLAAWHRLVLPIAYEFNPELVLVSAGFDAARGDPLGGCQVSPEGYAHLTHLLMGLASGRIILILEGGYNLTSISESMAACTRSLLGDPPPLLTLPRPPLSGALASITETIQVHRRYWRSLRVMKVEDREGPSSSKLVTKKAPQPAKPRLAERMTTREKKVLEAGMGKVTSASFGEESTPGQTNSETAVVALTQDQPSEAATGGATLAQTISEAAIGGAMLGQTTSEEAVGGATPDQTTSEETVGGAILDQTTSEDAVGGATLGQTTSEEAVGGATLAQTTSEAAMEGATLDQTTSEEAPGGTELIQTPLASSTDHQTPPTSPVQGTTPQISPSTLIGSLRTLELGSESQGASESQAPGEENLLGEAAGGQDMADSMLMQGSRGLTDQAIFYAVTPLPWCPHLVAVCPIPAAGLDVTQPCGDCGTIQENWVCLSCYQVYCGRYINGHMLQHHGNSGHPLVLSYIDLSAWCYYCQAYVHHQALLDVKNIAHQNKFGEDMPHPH
The assay is described as follows: Enzyme HDAC inhibition assay, HDAC6.
Source text: as §4

Assay [7] concerns the target T3, HDAC8 (Homo sapiens, UniProt Q9BY41).
T3 sequence (Q9BY41 1-377): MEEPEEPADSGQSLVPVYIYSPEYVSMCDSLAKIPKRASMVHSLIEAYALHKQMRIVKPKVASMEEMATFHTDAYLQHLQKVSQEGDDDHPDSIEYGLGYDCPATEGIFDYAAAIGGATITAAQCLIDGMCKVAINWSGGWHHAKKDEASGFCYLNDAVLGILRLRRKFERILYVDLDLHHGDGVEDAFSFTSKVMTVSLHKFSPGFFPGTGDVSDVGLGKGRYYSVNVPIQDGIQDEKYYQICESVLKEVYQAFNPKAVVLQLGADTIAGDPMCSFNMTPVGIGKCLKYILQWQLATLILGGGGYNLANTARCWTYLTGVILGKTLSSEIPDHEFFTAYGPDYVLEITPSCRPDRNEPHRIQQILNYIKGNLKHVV
The assay is described as follows: Enzyme HDAC inhibition assay, HDAC8.
Source text: as §4

In assay [8] the test system is caspase 3/7 in MCF-7 cells. The assay can be described thus: Caspase 3/7 activation assay, MCF-7. Type of assay: cell-based, human. The conditions noted are these: 0.5 mM or 1 mM, 24 h. As for the experimental part:
(§1) To analyze the compound-induced activation of capases 3 and 7, the CellEvent caspase 3/7 green detection reagent (Thermo Scientific, Wesel, Germany) was used according to the manufacturer’s instructions. […] After 24 h incubation, medium was removed, and cells were stained with 50 µL of CellEvent caspase 3/7 green detection reagent (2 µM in PBS supplemented with 5% heat-inactivated FBS). Cells were incubated for 30 min at 37 °C in a humidified incubator before imaging by using the Thermo Fisher ArrayScan XTI high content screening (HCS) system with a 10× magnification (Thermo Scientific). Hoechst 33342 was added for nuclei staining.

Assay [9] has as its system caspase 3/7 in T47D cells. The assay is described as follows: Caspase 3/7 activation assay, T47D. Type of assay: cell-based, human. The conditions noted are these: 0.5 mM or 1 mM, 24 h. As for the experimental part: as §1
The subject of assay [10] is MCF-7. The assay can be described thus: Immunoblotting, MCF-7. Type of assay: cell-based, human. The following applies: 48 h. The protocol:
(§2) A quantity of 20 or 40 µg of total protein as well as, from PageRuler Prestained Protein Ladder, 10–180 kDA (Thermo Scientific, Wesel, Germany), were resolved by SDS-Page (12% polyacrylamide gel) and transferred to polyvinylidene fluoride membrane (Millipore Corporation, Billerica, MA, USA). Blots were incubated with primary antibodies against acetylated a -tubulin (Cat. No. sc-23950), a -tubulin (Cat. No. sc-8035) (Santa Cruz Biotechnology, Heidelberg, Germany), acetyl histone h3 (Cat. No. 39140) and histone H3 (Cat. No. NB100-1669), ß-actine (Cat. No. sc-47778), p21 (AF1047), c-myk (Cat. No. MAB3696), APAF1 (Cat. No. MAB868), BIM (Cat. No. NBP1-76936), FOXO1 (Cat. No. C29H4), BCL-2 (Cat. No. AF810), and survivin (Cat. No. AF886). After another one-hour incubation with the appropriate HRP-conjugated secondary antibody, proteins were visualized by Intas Imager (Intas, Göttingen, Germany) using luminol reagent (Santa Cruz Biotechnology, Heidelberg, Germany).
On the technique in general: A western blot detects proteins with antibodies after separation by electrophoresis.

The subject of assay [11] is T47D. The assay is described as follows: Immunoblotting, T47D. Type of assay: cell-based, human. The following applies: 48 h. As for the experimental part:
as §2

Assay [12] deals with MCF-7. The assay can be described thus: MTT cell viability assay, MCF-7. Type of assay: cell-based, human. The following applies: 120 h; IC50 ± SEM; read-out: IC50 MCF-7, 120 h MTT assay. The protocol:
(§3) MTT assays were performed as previously described. […] After incubation time, medium was replaced by MTT (solution of 5 mg/mL 3-(4,5-dimethylthiazol-2-yl)-2,5-diphenyl-tetrazoliumbromidin in phosphate buffered saline, Serva, Heidelberg, Germany).
A general note: Formazan colour is commonly taken as a measure of viable cells.

The subject of assay [13] is T47D. The assay is described as follows: MTT cell viability assay, T47D. In kind it is cell-based, human. The conditions noted are these: 120 h; IC50 ± SEM; read-out: IC50 T-47D, 120 h MTT assay. As for the experimental part: as §3
The next assay deals with MDA-MB-231. The assay can be described thus: MTT cell viability assay, MDA-MB-231. Type of assay: cell-based, human. The following applies: 120 h; IC50 ± SEM; read-out: IC50 MDA-MB-231, 120 h MTT assay. As for the experimental part: MTT assays were performed as previously described. Cell numbers plated differed depending on each incubation time: MDA-MB-231 5000 c/w, MCF-7 5000 c/w (72 h) and 3000 c/w (120 h), T-47D 10,000 c/w (72 h) and 5000 c/w /120 h). After incubation time, medium was replaced by MTT (solution of 5 mg/mL 3-(4,5-dimethylthiazol-2-yl)-2,5-diphenyl-tetrazoliumbromidin in phosphate buffered saline, Serva, Heidelberg, Germany). After 10 min (MCF-7), 20 min (MDA-MB-231), and 30 min (T47D) and dissolving in DMSO (VWR, Langenfeld, Germany), absorbance was measured at 544 nm and 690 nm in a FLUOstar microplate reader (BMG LabTech, Offenburg, Germany).

Where [14] appears, read: obtained by fitting Lechner et al. source data to a sigmoidal concentration–effect model, read-out: IC50 HDAC 6, Lechner et al.

Where two headings read alike, the source gives them in different places.

Sequence of HDAC2 (Homo sapiens, UniProt Q92769) (Q92769 whole entry): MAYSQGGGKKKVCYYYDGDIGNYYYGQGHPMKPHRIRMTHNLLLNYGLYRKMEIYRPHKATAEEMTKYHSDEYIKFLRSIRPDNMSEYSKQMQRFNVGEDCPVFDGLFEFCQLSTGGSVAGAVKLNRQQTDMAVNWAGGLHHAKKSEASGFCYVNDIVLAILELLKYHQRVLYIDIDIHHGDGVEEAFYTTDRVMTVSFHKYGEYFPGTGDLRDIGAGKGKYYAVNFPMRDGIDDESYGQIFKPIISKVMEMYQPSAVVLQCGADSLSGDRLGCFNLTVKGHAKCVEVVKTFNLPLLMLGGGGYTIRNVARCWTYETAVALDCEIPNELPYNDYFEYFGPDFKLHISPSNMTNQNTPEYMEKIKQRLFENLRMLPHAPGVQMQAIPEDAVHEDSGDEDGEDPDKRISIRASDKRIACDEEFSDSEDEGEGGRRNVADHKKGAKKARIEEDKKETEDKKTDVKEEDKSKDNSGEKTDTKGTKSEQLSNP
T1 sequence (P56524 whole entry): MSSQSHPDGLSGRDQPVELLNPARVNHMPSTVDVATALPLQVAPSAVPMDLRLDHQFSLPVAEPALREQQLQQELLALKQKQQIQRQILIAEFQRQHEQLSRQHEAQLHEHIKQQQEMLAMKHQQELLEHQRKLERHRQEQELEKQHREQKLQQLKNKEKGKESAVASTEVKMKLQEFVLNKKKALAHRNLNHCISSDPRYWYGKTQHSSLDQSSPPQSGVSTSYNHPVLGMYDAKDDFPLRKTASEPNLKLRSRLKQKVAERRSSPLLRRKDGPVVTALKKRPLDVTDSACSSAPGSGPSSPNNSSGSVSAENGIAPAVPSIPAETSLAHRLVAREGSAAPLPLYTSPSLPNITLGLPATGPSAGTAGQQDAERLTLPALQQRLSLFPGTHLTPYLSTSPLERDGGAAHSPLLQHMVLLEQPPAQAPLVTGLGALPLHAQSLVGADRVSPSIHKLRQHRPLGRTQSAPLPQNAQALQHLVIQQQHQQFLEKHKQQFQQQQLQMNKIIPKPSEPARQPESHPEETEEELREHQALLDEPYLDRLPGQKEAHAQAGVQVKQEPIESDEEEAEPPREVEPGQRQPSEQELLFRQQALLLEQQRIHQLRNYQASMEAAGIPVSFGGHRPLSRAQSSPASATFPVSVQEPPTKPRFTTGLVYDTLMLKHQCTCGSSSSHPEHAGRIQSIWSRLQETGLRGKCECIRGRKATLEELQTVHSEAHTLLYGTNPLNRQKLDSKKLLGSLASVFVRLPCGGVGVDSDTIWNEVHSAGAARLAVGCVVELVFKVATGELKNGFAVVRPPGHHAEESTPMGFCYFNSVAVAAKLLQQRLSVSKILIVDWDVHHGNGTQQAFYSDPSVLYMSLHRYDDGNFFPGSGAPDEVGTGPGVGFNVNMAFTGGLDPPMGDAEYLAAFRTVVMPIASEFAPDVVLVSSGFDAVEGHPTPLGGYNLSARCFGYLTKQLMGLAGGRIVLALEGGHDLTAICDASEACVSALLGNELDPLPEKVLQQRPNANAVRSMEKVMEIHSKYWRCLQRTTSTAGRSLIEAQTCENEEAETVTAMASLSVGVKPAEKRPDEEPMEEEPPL
Source text for HDAC4: as §4

By IC50 is commonly meant the concentration at which inhibition is half-maximal. As to `O=C(CCCCCCC(=O)Nc1ccccc1)NO` [vorinostat], the half-maximal inhibitory concentration (IC50) in assay [1] (Homo sapiens, T47D) came out at 0.79 ± 0.07 µM.
Take `O=C(O)CCCCC(S)CCS` (racemic): the IC50 on HDAC4 was 177 ± 17.5 µM; with HDAC2 [2], 27.9 µM; with HDAC6 [3] (setting [14]), 1.7 µM; with HDAC6 [3] (read-out: IC50 at HDAC6 as reported by Lechner et al.), roughly 1 µM; with HDAC8 [4], 22.3 µM; at HDAC2 [5] it was 98.1 ± 35.6 µM. In addition, the concentration for half-maximal inhibition (IC50) against HDAC6 [6] turned out to be 6.48 ± 2.11 µM; against HDAC8 [7], 51.5 ± 10.5 µM. Further, the “more active than rac-α-lipoic acid at HDAC6, Lechner et al.'s study” value in the assay on HDAC6 [3] was “around 100 fold”. Further, the “more active than rac-α-lipoic acid at HDAC8, Lechner et al.'s study” value in the assay on HDAC8 [4] is given as “at least 5 fold”. Also, the “HDAC6 preference (selectivity for HDAC6)” value at HDAC6 [6] (versus HDAC2, 4 and 8, from Table 1) is 8 fold.
As to `O=C(O)CCCCC1CCSS1` (stereo not drawn) [α-lipoic acid], the “caspase activation, MCF-7” value in assay [8] is on record as 5–15%. For the same compound, the “caspase activation, T47D” value in assay [9] is on record as 5–15%. Moreover, the “expression of BCL-2, MCF-7” value with MCF-7 [10] is given as “loss or massive reduction in expression”. In addition, the “expression of BCL-2, T47D” value with T47D [11] is given as “loss or massive reduction in expression”.
With `O=C(O)CCCCC1CCSS1` (racemic) [rac-α-lipoic acid], the IC50 on HDAC4 is 262 ± 37.8 µM; in assay [1] (T47D cells, substrate Boc-Lys-AC-AMC, IC50 ± SEM, one experiment in triplicates), 1190 ± 67 µM; in the assay on MCF-7 [12], 454 ± 15.2 µM; with T47D [13] it was 373 ± 13.9 µM; in the assay with MDA-MB-231, 275 ± 22.5 µM; with HDAC2 [2], 391 µM. In addition, the 50% inhibitory concentration (IC50) with HDAC6 [3] (setting [14]) was 191 µM; in the assay with HDAC8 [4] it was 109 µM; on HDAC2 [5] (read-out: IC50 HDAC 2, IC50 ± SEM, three experiments in duplicates), 208 ± 4.2 µM; at HDAC6 [6] (read-out: IC50 HDAC 6, IC50 ± SEM, three experiments in duplicates) it was 15.3 ± 4.6 µM; on HDAC8 [7] (read-out: IC50 HDAC 8, IC50 ± SEM, three experiments in duplicates) it was 464 ± 83 µM.

(Values after paper PMC11313180 (International Journal of Molecular Sciences, 2024).)
